PubChem BioAssay (NCI)
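Method: 48-hour compound exposure of cells in 96-well plates, five concentrations, linear interpolation of endpoints. TGI marks complete inhibition of growth.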

Legend:
Test in all cases: NCI tumour cell line growth inhibition, 48 h
786-0 renal = tested on: 786-0 renal
A498 renal = tested on: A498 renal
A549 NSCLC = tested on: A549 NSCLC
ACHN renal = tested on: ACHN renal
CAKI-1 renal = tested on: CAKI-1 renal
CCRF-CEM leukemia = tested on: CCRF-CEM leukemia
COLO 205 colon = tested on: COLO 205 colon
DLD-1 colon = tested on: DLD-1 colon
DMS 114 small cell lung = tested on: DMS 114 small cell lung
DMS 273 small cell lung = tested on: DMS 273 small cell lung
EKVX NSCLC = tested on: EKVX NSCLC
HCC-2998 colon = tested on: HCC-2998 colon
HCT-116 colon = tested on: HCT-116 colon
HCT-15 colon = tested on: HCT-15 colon
HL-60(TB) leukemia = tested on: HL-60(TB) leukemia
HOP-18 NSCLC = tested on: HOP-18 NSCLC
HOP-62 NSCLC = tested on: HOP-62 NSCLC
HOP-92 NSCLC = tested on: HOP-92 NSCLC
HT29 colon = tested on: HT29 colon
IGROV1 ovarian = tested on: IGROV1 ovarian
K-562 leukemia = tested on: K-562 leukemia
KM12 colon = tested on: KM12 colon
LOX IMVI melanoma = tested on: LOX IMVI melanoma
LXFL 529 NSCLC = tested on: LXFL 529 NSCLC
M14 melanoma = tested on: M14 melanoma
M19-MEL melanoma = tested on: M19-MEL melanoma
MALME-3M melanoma = tested on: MALME-3M melanoma
MOLT-4 leukemia = tested on: MOLT-4 leukemia
NCI-H226 lung = tested on: NCI-H226 lung
NCI-H23 lung = tested on: NCI-H23 lung
NCI-H460 lung = tested on: NCI-H460 lung
NCI-H522 lung = tested on: NCI-H522 lung
OVCAR-3 ovarian = tested on: OVCAR-3 ovarian
OVCAR-4 ovarian = tested on: OVCAR-4 ovarian
OVCAR-5 ovarian = tested on: OVCAR-5 ovarian
OVCAR-8 ovarian = tested on: OVCAR-8 ovarian
RPMI-8226 leukemia = tested on: RPMI-8226 leukemia
RXF 393 renal = tested on: RXF 393 renal
SF-268 CNS = tested on: SF-268 CNS
SF-295 CNS = tested on: SF-295 CNS
SF-539 CNS = tested on: SF-539 CNS
SK-MEL-2 melanoma = tested on: SK-MEL-2 melanoma
SK-MEL-28 melanoma = tested on: SK-MEL-28 melanoma
SK-MEL-5 melanoma = tested on: SK-MEL-5 melanoma
SK-OV-3 ovarian = tested on: SK-OV-3 ovarian
SN12C renal = tested on: SN12C renal
SNB-19 CNS = tested on: SNB-19 CNS
SNB-75 CNS = tested on: SNB-75 CNS
SNB-78 CNS = tested on: SNB-78 CNS
SR leukemia = tested on: SR leukemia
SW-620 colon = tested on: SW-620 colon
TK-10 renal = tested on: TK-10 renal
U251 CNS = tested on: U251 CNS
UACC-257 melanoma = tested on: UACC-257 melanoma
UACC-62 melanoma = tested on: UACC-62 melanoma
UO-31 renal = tested on: UO-31 renal
XF 498 CNS = tested on: XF 498 CNS

Measured: TGI

NNC(=O)/C(=C/c1ccc(Cl)cc1Cl)NC(=O)c1ccccc1
> 100 µM: 786-0 renal | A498 renal | A549 NSCLC | ACHN renal | CAKI-1 renal | CCRF-CEM leukemia | COLO 205 colon | DLD-1 colon | DMS 114 small cell lung | DMS 273 small cell lung | EKVX NSCLC | HCC-2998 colon | HCT-116 colon | HCT-15 colon | HL-60(TB) leukemia | HOP-18 NSCLC | HOP-62 NSCLC | HOP-92 NSCLC | HT29 colon | IGROV1 ovarian | K-562 leukemia | KM12 colon | LOX IMVI melanoma | LXFL 529 NSCLC | M14 melanoma | M19-MEL melanoma | MALME-3M melanoma | MOLT-4 leukemia | NCI-H226 lung | NCI-H23 lung | NCI-H460 lung | NCI-H522 lung | OVCAR-3 ovarian | OVCAR-4 ovarian | OVCAR-5 ovarian | OVCAR-8 ovarian | RPMI-8226 leukemia | RXF 393 renal | SF-268 CNS | SF-295 CNS | SF-539 CNS | SK-MEL-2 melanoma | SK-MEL-28 melanoma | SK-MEL-5 melanoma | SK-OV-3 ovarian | SN12C renal | SNB-19 CNS | SNB-75 CNS | SNB-78 CNS | SR leukemia | SW-620 colon | TK-10 renal | U251 CNS | UACC-257 melanoma | UACC-62 melanoma | UO-31 renal | XF 498 CNS
